Reference: publication PMC4579270, “Identification and Characterization of an Irreversible Inhibitor of CDK2” (Chemistry & Biology, 2015)

Target: T1, CDK2^K89V/cyclin A (Homo sapiens, UniProt P24941, K89V)
T1 construct: GST (N, cleaved yes); made in house; host or cells: Escherichia coli; phosphorylated in vitro by GST-CAK
Assay: Bandshift kinase assay after incubation and dialysis, mutant
Format: biochemical
Procedure: The bandshift experiment was repeated after incubating CDK2^K88E/cyclin A and CDK2^K89V/cyclin A with NU6300, NU6310, or DMSO followed by dialysis to remove unbound inhibitor (Figure S2G).
Figure S2, Related to Figure 3. Identification of the site of CDK2 modification by NU6300. (A-G) Single site CDK2 mutants CDK2D86A, CDK2K88E, and CDK2K89V identify the site of CDK2 modification by NU6300. These mutations change the CDK2 sequence to that of CDK7 and are known not to disrupt the CDK2 fold. Mass spectra of CDK2 mutants: […]
(G) Protein kinase activity of authentic CDK2 and single site CDK2 mutants following incubation with NU6300 or NU6310. Samples were taken at the indicated number of minutes after initiation of the reaction. Note that compared to authentic CDK2, the single site Lys88 and Lys89 mutants have a slower rate of reaction (Compare LHS panels). This drop in activity was expected because whereas the wild type protein was produced by co-expression with S. cerevisiae […]
the mutant proteins were activated by S. cerevisiae CAK1 phosphorylation in vitro– a relatively inefficient process as judged from the results of ESI-MS (Table S1). (H) NU6300 […]
NU6300 carbon atoms are coloured green. Rb, retinoblastoma protein, Phospho-Rb, […]
Protein expression and purification
Site-directed mutagenesis of CDK2 was performed using the QuikChange II kit (Stratagene) following the manufacturer’s instructions and verified by DNA sequencing.
Wild-type CDK2 phosphorylated at Thr160, untagged human cyclin A2 (residues 174-432), S. cerevisiae GST–CAK, GST–3C-protease and GST–pRb (residues 792–928) were expressed and purified as previously described (Brown et al., 1999a; Brown et al., 1999b; Welburn and Endicott, 2005). […]
CDK2/cyclin A (200 µM) was incubated overnight with 1 mM inhibitor or DMSO, and then dialysed for 8 h with regular replacement of dialysis buffer into HEPES-buffered saline (50 mM HEPES, pH 7.5, 250 mM NaCl, 0.02% MTG). […] Reactions were stopped by addition of SDS-PAGE loading buffer and analyzed by SDS-PAGE. […]

| SMILES | CDK2 activity against Rb after incubation with inhibitor and dialysis |
| --- | --- |
| CCS(=O)(=O)c1ccc(Nc2nc(OCC3CCCCC3)c3nc[nH]c3n2)cc1 [NU6310, 6-(cyclohexylmethoxy)-N-(4-(ethylsulfonyl)phenyl)-9H-purin-2-amine] | recovered their activity |
| C=CS(=O)(=O)c1ccc(Nc2nc(OCC3CCCCC3)c3nc[nH]c3n2)cc1 [NU6300, 6-(cyclohexylmethoxy)-N-(4-(vinylsulfonyl)phenyl)-9H-purin-2-amine] | recovered activity |
